System: Plasmopara viticola
Experiment: Plasmopara viticola/Grape/Curative (Grape Downy Mildew)
Type: in vivo
Conditions: 200 ppm; grape seedlings cv. Gutedel, inoculated one day before application, assessed 4-6 days after application
Method: Plasmopara viticola/Grape/Curative (Grape Downy Mildew)
5-week-old grape seedlings cv. Gutedel are inoculated by spraying a sporangia suspension on their lower leaf surface one day before application. The inoculated grape plants are sprayed in a spray chamber with the formulated test compound diluted in water. The inoculated test plants are incubated at 22° C. and 100% rh in a greenhouse and the percentage leaf area covered by disease is assessed when an appropriate level of disease appears on untreated check plants (4-6 days after application).

Cc1cc(C(F)(F)F)nn1CC(=O)N(C)CCCc1nc(C(=O)N(C)[C@@H]2CCCc3ccccc32)cs1 [Compound I.d.55, 2-(3-{methyl-[2-(5-methyl-3-trifluoromethyl-pyrazol-1-yl)-acetyl]-amino}-propyl)-thiazole-4-carboxylic acid methyl-(R)-1,2,3,4-tetrahydro-naphthalen-1-yl-amide]
disease control: at least 80%

From US20120258990A1 (priority 2009, published 2012)
